This passage reports logD results from the SangsterLogP compilation.

The structures appear in SMILES notation.

The first data set is described as follows: method code SF, from DOI: 10.1021/jm00226a007, PMID: 817022. Conditions: pH 7.4.
As a reminder, the logD is lipophilicity at a set pH, counting ionised and neutral species. Turning to `COc1cc(C(=O)NN)ccn1`, the logD was -0.1.

Another data set is described as follows: method code SF-AS, from DOI: 10.1021/jm00226a007, PMID: 817022. The following applies: pH 7.4.
`CC(=O)Nc1cc(C(=O)NN)ccn1`: the pH-dependent lipophilicity (logD) was -1.25.
Consider `NNC(=O)c1ccnc(Br)c1`, for which the logD was 0.25.
In the case of `CCc1cc(C(=O)NN)ccn1`, the log distribution coefficient (logD) is 0.12.
On the same count and under the same terms, for `NNC(=O)c1ccnc(N)c1` the value was -0.98.
Same read-out and setting: for `Cc1cc(C(=O)NN)ccn1` the value was -0.37; for `CC(C)Cc1cc(C(=O)NN)ccn1`, 1.02; for `CCCc1cc(C(=O)NN)ccn1`, 0.63.
As for `CCOc1cc(C(=O)NN)ccn1`, the logD turned out to be 0.48.
Take `NNC(=O)c1ccnc(F)c1`: the log distribution coefficient (logD) is -0.11.
`NNC(=O)c1ccnc([N+](=O)[O-])c1`: the logD is -0.76.
The compound `NNC(=O)c1ccnc(-c2ccccc2)c1` gave a logD of 1.36.
As for `NNC(=O)c1ccnc(Cc2ccccc2)c1`, the logD is 1.01.
Still for that read-out and setting: for `CC(=O)NCc1cc(C(=O)NN)ccn1` the value was -1.58; for `NNC(=O)c1ccnc(I)c1`, 0.52.
`NNC(=O)c1ccnc(Cl)c1`: the logD stood at 0.11.
Compound `CCN(CC)c1cc(C(=O)NN)ccn1` came in with a logD of 1.12.
